Laboratory results published in patent US7439372B2, “Therapeutic compounds” (Allergan, Inc., priority 2006, dated 2008).

Tests used:
[1] = target: T1, hTP (Homo sapiens, UniProt P21731); experiment: FLIPR calcium signal, HEK-293(EBNA) cells expressing hTP; assay type: cell-based
T1 construct: expressed in transfected cells; host or cells: HEK-293(EBNA)
T1 sequence (P21731 1-343): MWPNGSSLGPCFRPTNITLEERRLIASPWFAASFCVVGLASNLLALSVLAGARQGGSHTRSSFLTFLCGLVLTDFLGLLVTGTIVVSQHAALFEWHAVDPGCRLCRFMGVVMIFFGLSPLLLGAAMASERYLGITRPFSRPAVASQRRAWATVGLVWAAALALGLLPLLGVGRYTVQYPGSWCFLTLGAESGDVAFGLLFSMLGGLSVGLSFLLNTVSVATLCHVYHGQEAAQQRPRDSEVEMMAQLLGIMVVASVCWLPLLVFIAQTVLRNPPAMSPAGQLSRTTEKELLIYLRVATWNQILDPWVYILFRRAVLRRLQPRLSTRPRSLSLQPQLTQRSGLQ
Method: (§1) HEK-293(EBNA) cells, stably expressing one type or subtype of recombinant human prostaglandin receptors (prostaglandin receptors expressed: hDP/Gqs5; hEP1; hEP2/Gqs5; hEP3A/Gqi5; hEP4/Gqs5; hFP; hIP; hTP), were cultured in 100 mm culture dishes in high-glucose DMEM medium containing 10% fetal bovine serum, 2 mM l-glutamine, 250 µg/ml geneticin (G418) and 200 μg/ml hygromycin B as selection markers, and 100 units/ml penicillin G, 100 µg/ml streptomycin and 0.25 μg/ml amphotericin B.
(§2) Cells were seeded at a density of 5×10^4 cells per well in Biocoat® Poly-D-lysine-coated black-wall, clear-bottom 96-well plates (Becton-Dickinson) and allowed to attach overnight in an incubator at 37° C. Cells were then washed two times with HBSS-HEPES buffer (Hanks Balanced Salt Solution without bicarbonate and phenol red, 20 mM HEPES, pH 7.4) using a Denley Cellwash plate washer (Labsystems). After 45 minutes of dye-loading in the dark, using the calcium-sensitive dye Fluo-4 […] at a final concentration of 2 μM, plates were washed four times with HBSS-HEPES buffer to remove excess dye leaving 100 μl in each well. Plates were re-equilibrated to 37° C. for a few minutes.
(§3) Cells were excited with an Argon laser at 488 nm, and emission was measured through a 510-570 nm bandwidth emission filter (FLIPR™, Molecular Devices, Sunnyvale, Calif.). Drug solution was added in a 50 µl volume to each well to give the desired final concentration. The peak increase in fluorescence intensity was recorded for each well. On each plate, four wells each served as negative (HBSS-HEPES buffer) and positive controls (standard agonists: BW245C (hDP); PGE2 (hEP1; hEP2/Gqs5; hEP3A/Gqi5; hEP4/Gqs5); PGF2α (hFP); carbacyclin (hIP); U-46619 (hTP), depending on receptor). The peak fluorescence change in each drug-containing well was then expressed relative to the controls.
(§4) Compounds were tested in a high-throughput (HTS) or concentration-response (CoRe) format. In the HTS format, forty-four compounds per plate were examined in duplicates at a concentration of 10^−5 M. To generate concentration-response curves, four compounds per plate were tested in duplicates in a concentration range between 10^−5 and 10^−11 M. The duplicate values were averaged. In either, HTS or CoRe format each compound was tested on at least 3 separate plates using cells from different passages to give an n≧3.

[2] = target: T2, hDP/Gqs5 (Homo sapiens, UniProt Q13258); experiment: FLIPR calcium signal, HEK-293(EBNA) cells expressing hDP/Gqs5; assay type: cell-based
T2 construct: expressed in transfected cells; host or cells: HEK-293(EBNA)
T2 sequence (Q13258 1-359): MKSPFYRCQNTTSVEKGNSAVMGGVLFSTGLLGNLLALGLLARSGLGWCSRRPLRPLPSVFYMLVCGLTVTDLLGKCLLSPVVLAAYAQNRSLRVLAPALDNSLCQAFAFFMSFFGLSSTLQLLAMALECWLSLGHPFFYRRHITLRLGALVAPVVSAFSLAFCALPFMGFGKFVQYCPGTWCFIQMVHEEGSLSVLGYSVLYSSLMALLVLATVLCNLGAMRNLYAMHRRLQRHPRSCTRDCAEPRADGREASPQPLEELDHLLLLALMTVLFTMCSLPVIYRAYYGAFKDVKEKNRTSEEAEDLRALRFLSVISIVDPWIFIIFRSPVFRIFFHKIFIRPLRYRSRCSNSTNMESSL
Method: as §1, §2, §3, §4

[3] = target: T3, EP4 receptors (Homo sapiens, UniProt P35408); experiment: Radioligand binding, [3H]PGE2, HEK-293 cells stably expressing EP4 receptors; details: [3H]PGE2 competition
T3 construct: expressed in transfected cells; host or cells: HEK-293
T3 sequence (P35408 whole entry): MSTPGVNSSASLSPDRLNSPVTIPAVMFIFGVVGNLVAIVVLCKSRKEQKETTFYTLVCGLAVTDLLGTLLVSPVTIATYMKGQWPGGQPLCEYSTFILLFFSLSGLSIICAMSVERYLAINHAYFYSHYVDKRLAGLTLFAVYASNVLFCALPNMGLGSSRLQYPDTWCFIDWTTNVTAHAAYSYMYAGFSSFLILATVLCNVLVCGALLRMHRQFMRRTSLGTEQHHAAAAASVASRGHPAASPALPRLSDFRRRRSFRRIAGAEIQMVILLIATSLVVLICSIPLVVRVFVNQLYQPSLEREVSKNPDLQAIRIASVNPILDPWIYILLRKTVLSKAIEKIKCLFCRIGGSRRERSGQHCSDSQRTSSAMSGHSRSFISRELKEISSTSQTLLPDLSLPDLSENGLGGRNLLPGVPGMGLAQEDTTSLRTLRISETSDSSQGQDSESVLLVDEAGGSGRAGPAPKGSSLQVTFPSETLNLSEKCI
Method: HEK-293 cells stably expressing the human or feline FP receptor, or EP1, EP2, or EP4 receptors were washed with TME buffer, scraped from the bottom of the flasks, and homogenized for 30 sec using a Brinkman PT 10/35 polytron. TME buffer was added to achieve a final 40 ml volume in the centrifuge tubes (the composition of TME is 100 mM TRIS base, 20 mM MgCl2, […]; 10N HCl is added to achieve a pH of 7.4).
The cell homogenate was centrifuged at 19000 r.p.m. for 20 min at 4° C. using a Beckman Ti-60 rotor. The resultant pellet was resuspended in TME buffer to give a final 1 mg/ml protein concentration, as determined by Biorad assay. Radioligand binding competition assays vs. [^3H-]17-phenyl PGF2α (5 nM) were performed in a 100 μl volume for 60 min. Binding reactions were started by adding plasma membrane fraction. The reaction was terminated by the addition of 4 ml ice-cold TRIS-HCl buffer and rapid filtration through glass fiber GF/B filters using a Brandel cell harvester. The filters were washed 3 times with ice-cold buffer and oven dried for one hour.
[^3H-]PGE2 (specific activity 180 Ci mmol) was used as the radioligand for EP receptors. [^3H]17-phenyl PGF2α was employed for FP receptor binding studies. Binding studies employing EP1, EP2, EP4 and FP receptors were performed in duplicate in at least three separate experiments. A 200 μl assay volume was used. Incubations were for 60 min at 25° C. and were terminated by the addition of 4 ml of ice-cold 50 mM TRIS-HCl, followed by rapid filtration through Whatman GF/B filters and three additional 4 ml washes in a cell harvester (Brandel). Competition studies were performed using a final concentration of 5 nM [^3H]-PGE2, or 5 nM [^3H] 17-phenyl PGF2α and non-specific binding determined with 10^−5M of unlabeled PGE2, or 17-phenyl PGF2α, according to receptor subtype studied.

| Ca2+ Signal-EC50(nM) TP [1] | EC50 ([2]; read-out: Ca2+ Signal-EC50(nM) DP) [nM] | Ca2+ Signal-EC50(nM) DP [2] | Ki [3] [nM] | SMILES |
| --- | --- | --- | --- | --- |
| notactive | 9060 |  |  | CCCCCC(O)c1ccc([C@H]2C(=O)CC[C@@H]2CCCc2ccc(C(=O)O)s2)cc1 (some centres unmarked) [compound 2] |
| notactive |  | notactive | 1030 | CCCCCC(O)c1ccc([C@@H]2[C@@H](C/C=C\CCCC(=O)O)CC[C@H]2Cl)cc1 (some centres unmarked) [compound 6] |
| notactive |  | notactive |  | CCCCCC(O)c1ccc([C@H]2C(=O)CC[C@@H]2CCCc2ccc(C(=O)O)s2)cc1 (some centres unmarked) [compound 1] |
| notactive |  | notactive | 1940 | CCCCCC(O)c1ccc([C@H]2C(=O)C=C[C@@H]2CCCc2ccc(C(=O)O)s2)cc1 (some centres unmarked) [compound 11] |
| notactive |  | notactive | 4210 | CCCCCC(O)c1ccc([C@H]2C(=O)CC[C@@H]2C/C=C\CCCC(=O)O)cc1 (some centres unmarked) [compound 5] |
| notactive |  | notactive |  | CCCCCC(O)c1ccc([C@@H]2[C@@H](CCCc3ccc(C(=O)O)s3)CCC2(Cl)Cl)cc1 (some centres unmarked) [compound 3] |
| notactive |  | notactive |  | CCCCCC(O)c1ccc([C@@H]2[C@@H](C/C=C\CCCC(=O)O)CC[C@H]2O)cc1 (some centres unmarked) [compound 7] |
